The source made the active and inactive calls.
Tests used:
[1] = molecular target: T1, Adenosylmethionine-8-amino-7-oxononanoate aminotransferase (Mycobacterium tuberculosis, UniProt P9WQ81); test: Mycobacterium tuberculosis BioA enzyme inhibitor Measured in Biochemical System Using Plate Reader - 2163-02_Inhibitor_Dose_CherryPick_Activity.; format: functional, Mycobacterium tuberculosis UT205
T1 sequence (P9WQ81 whole entry): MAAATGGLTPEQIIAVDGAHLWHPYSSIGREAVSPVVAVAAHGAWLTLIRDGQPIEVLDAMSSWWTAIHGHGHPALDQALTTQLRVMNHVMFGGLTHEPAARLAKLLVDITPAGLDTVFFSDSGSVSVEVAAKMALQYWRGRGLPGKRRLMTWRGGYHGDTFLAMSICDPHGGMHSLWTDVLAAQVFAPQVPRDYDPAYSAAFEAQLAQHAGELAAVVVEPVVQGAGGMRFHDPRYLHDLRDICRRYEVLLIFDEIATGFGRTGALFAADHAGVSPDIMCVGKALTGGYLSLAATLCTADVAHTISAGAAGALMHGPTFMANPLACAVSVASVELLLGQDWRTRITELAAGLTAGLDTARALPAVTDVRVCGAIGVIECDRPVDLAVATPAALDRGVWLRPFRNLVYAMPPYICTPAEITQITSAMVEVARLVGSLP

[2] = bead-based luminescence quenchers, dual-tagged ARNT – biochemical, AlphaScreen, cherry-pick, artefact control for ARNT-TACC3 interaction inhibitor project, dose response (AID 651705); format: functional;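 also: AlphaScreen bead proximity signal that flags compounds interfering with the detection technology; potency reflects signal decrease which marks the compound as an assay artifact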
[3] = A Cell Based Secondary Assay To Explore Cytotoxicity of Compounds that Sensitize Mycobacterium Tuberculosis to Beta-Lactam Antibiotics.; format: functional
[4] = cAMP pathway inhibition in counterscreen cell line – TR-FRET cAMP detection, counter-screen for MC4R biased antagonist project, dose response (AID 602305); format: functional, cell-based;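 also: U2OS cells stimulated with forskolin near its EC80 as the cAMP inducer; potency is for inhibition of forskolin-stimulated cAMP signaling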
[5] = molecular target: Melanocortin receptor 4 (Homo sapiens, UniProt P32245); test: inhibitors of MC4R cAMP signaling – cell-based, TR-FRET, biased antagonists, dose response (AID 602298); format: functional;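 also: antagonist potency against agonist-stimulated cAMP production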
Melanocortin receptor 4, sequence (P32245 whole entry): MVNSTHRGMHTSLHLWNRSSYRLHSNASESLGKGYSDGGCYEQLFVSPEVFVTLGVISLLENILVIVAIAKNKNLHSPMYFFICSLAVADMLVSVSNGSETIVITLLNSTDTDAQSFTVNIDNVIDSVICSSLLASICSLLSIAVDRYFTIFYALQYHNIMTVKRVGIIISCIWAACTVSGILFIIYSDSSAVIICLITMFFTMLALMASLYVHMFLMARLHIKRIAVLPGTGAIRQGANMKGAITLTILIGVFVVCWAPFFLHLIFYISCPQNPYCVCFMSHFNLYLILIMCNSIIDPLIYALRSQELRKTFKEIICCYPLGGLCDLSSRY

[6] = molecular target: T2, High affinity choline transporter 1 (Homo sapiens, UniProt Q9GZV3); test: human choline transporter blockers, potency – cell-based, 10-point CRC, membrane potential dye, dose response (AID 588401); format: functional;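 also: membrane potential dye fluorescence of choline-evoked depolarization via CHT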
T2 sequence (Q9GZV3 whole entry): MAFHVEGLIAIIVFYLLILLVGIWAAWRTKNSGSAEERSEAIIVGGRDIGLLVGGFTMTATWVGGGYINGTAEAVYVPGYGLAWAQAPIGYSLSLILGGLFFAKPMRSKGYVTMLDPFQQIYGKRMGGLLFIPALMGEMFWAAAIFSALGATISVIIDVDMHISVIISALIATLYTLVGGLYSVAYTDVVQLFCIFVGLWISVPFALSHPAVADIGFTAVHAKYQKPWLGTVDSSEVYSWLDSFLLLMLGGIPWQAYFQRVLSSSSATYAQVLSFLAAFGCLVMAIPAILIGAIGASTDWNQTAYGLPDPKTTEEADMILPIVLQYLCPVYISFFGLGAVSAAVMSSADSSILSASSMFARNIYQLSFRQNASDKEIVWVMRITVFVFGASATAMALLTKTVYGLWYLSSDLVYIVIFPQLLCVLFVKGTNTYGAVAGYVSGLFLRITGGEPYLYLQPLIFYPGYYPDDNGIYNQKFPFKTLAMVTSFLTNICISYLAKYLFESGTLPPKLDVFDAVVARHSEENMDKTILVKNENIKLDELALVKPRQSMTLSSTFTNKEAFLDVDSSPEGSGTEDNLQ

[7] = molecular target: T2, High affinity choline transporter 1; test: human choline transporter blockers, potency – cell-based, 5-point CRC, membrane potential dye, dose response (AID 504840); format: functional
[8] = molecular target: T3, Microphthalmia-associated transcription factor (Homo sapiens, UniProt O75030); test: reducers of TRPM1 reporter luminescence, concentration series – cell-based, SK-MEL-5, cherry-picked, set 3, MITF inhibitor project, dose response (AID 493073); format: functional;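 also: SK-MEL-5 melanoma cells with luciferase driven by the MITF target TRPM1 promoter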
T3 sequence (O75030 whole entry): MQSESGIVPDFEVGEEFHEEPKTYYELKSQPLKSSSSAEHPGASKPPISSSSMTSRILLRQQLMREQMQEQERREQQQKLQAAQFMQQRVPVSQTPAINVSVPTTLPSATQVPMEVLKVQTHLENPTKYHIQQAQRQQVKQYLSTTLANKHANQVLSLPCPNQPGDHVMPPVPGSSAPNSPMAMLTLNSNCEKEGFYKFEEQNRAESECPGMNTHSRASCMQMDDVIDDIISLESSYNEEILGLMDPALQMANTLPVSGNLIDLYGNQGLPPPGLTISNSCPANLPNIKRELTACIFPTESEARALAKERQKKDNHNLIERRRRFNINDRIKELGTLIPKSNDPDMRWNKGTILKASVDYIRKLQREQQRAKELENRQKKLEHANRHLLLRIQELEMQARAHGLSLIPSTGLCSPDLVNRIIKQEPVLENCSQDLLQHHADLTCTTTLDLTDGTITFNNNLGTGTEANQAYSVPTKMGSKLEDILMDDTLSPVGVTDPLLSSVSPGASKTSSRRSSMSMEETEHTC

[9] = molecular target: T4, RNA-binding protein pos-1 (Caenorhabditis elegans, UniProt G5EF15); test: disruptors of C. elegans POS-1 RNA interaction – biochemical, fluorescence polarization, dose response (AID 1964);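 also: purified POS-1 fused to maltose binding protein made in E. coli; potency of compounds blocking POS-1 binding to fluorescent RNA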
T4 sequence (G5EF15 whole entry): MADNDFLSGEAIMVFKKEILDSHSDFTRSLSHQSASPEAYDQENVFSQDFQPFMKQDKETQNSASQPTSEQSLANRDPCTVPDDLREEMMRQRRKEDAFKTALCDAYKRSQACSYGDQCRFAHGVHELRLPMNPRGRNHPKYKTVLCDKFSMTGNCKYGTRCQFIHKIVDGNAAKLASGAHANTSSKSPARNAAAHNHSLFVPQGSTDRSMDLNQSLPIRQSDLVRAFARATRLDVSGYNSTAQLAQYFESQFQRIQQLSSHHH

[10] = molecular target: DNA (cytosine-5)-methyltransferase 1 (Homo sapiens, UniProt P26358); test: inhibition of DNA methylation by DNMT1 – biochemical, fluorescent molecular beacon, confirmation (AID 602386); format: functional
DNA (cytosine-5)-methyltransferase 1, sequence (P26358 whole entry): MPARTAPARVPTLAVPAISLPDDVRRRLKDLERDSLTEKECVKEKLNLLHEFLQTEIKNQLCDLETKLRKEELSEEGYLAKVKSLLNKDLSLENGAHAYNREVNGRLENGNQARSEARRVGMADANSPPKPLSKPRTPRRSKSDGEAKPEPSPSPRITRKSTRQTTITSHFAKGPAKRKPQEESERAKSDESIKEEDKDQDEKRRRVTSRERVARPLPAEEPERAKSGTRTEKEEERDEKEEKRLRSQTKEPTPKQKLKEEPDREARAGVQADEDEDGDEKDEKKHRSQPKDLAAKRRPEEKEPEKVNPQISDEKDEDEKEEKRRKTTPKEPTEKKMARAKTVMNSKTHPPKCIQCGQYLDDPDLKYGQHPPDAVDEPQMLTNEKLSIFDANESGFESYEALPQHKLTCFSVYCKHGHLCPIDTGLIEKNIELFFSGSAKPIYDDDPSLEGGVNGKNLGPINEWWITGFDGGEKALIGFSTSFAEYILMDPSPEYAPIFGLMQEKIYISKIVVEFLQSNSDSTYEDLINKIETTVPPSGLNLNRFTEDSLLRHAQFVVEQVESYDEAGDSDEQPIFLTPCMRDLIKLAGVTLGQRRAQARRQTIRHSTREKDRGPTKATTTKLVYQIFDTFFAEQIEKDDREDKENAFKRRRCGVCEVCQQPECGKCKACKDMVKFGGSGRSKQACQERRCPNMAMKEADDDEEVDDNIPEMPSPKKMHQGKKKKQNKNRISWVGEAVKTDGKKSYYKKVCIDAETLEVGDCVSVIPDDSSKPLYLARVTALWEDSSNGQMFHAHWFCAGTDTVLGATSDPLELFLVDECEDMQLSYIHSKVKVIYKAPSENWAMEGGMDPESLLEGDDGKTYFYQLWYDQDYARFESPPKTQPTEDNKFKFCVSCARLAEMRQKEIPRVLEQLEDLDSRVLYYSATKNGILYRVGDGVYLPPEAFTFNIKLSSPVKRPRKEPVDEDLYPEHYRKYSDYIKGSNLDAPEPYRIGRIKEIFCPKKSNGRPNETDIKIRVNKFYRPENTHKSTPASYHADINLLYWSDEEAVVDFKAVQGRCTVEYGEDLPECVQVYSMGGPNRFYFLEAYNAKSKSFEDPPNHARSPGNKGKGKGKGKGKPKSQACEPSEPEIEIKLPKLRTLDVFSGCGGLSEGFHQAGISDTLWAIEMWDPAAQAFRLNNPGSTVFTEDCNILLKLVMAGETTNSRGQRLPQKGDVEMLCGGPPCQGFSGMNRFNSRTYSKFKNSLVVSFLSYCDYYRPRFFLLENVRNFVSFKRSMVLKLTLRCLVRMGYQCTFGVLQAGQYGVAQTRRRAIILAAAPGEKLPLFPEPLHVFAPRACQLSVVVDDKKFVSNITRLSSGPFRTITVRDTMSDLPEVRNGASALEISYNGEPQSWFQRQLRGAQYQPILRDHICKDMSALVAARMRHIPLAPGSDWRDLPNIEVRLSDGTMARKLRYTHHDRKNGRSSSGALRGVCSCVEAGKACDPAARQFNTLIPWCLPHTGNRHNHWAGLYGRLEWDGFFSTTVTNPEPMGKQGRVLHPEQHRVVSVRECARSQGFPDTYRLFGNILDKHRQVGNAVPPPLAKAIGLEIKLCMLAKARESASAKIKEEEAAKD

[11] = molecular target: T5, Zinc finger protein mex-5 (Caenorhabditis elegans, UniProt Q9XUB2); test: potency of MEX-5 RNA-binding blockers – biochemical, C. elegans, fluorescence polarization, dose response (AID 1960)
T5 sequence (Q9XUB2 whole entry): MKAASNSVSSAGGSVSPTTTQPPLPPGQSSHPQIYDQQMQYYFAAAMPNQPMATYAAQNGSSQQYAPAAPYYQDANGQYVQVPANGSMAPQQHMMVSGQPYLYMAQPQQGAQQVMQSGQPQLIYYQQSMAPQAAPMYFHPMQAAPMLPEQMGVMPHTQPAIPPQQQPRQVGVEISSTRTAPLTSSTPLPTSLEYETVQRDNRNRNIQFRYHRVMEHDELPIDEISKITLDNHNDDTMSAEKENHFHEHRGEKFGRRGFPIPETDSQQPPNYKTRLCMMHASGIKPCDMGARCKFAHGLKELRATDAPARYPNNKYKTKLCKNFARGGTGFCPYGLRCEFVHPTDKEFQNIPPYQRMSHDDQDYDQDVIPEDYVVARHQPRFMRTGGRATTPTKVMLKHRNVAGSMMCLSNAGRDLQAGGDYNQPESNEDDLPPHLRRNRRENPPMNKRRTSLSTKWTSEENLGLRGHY

[12] = molecular target: T6, Mitochondrial peptide methionine sulfoxide reductase (Bos taurus, UniProt P54149); format: functional;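 also: absorbance read-out, biochemical high-throughput dose-response screen for MsrA inhibitors, confirmatory; recombinant bovine MsrA coupled to E. coli TrxB with NADPH and selenocystamine; potency is for inhibitors of MsrA activity on DMSO substrate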
T6 sequence (P54149 whole entry): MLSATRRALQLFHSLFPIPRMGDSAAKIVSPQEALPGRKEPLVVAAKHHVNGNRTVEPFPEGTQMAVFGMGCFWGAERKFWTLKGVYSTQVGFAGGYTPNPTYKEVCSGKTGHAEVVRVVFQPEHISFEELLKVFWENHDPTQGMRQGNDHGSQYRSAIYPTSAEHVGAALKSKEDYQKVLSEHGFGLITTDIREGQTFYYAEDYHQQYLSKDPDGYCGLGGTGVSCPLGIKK

[13] = molecular target: T7, Probable nicotinate-nucleotide adenylyltransferase (Staphylococcus aureus (strain N315), UniProt P65502); format: functional, Staphylococcus aureus subsp. aureus N315; details: read-out: IC50_Mean;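 as to IC50 Mean: confirmatory dose-response retesting of NadD inhibitor hits first found in an ultra-high-throughput screen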
T7 sequence (P65502 whole entry): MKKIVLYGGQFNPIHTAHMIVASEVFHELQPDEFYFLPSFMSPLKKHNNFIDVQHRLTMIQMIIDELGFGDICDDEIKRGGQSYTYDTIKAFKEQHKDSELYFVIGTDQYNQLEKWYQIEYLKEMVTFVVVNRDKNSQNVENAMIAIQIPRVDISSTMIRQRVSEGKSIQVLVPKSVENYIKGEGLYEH

[14] = molecular target: T7, Probable nicotinate-nucleotide adenylyltransferase; format: functional, Staphylococcus aureus subsp. aureus N315
[15] = molecular target: Nonstructural protein 1 (Influenza A virus, UniProt Q194T2); format: functional, Influenza A virus (A/California/07/2009(H1N1))
Nonstructural protein 1, sequence (Q194T2 whole entry): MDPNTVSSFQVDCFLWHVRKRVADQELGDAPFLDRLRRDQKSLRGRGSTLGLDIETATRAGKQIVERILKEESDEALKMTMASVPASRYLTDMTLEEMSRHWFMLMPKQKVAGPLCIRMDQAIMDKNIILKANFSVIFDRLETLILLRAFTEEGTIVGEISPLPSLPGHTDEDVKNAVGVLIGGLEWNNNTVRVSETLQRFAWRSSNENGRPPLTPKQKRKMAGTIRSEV

[16] = cells; format: functional, cell-based
[17] = cells; format: functional, cell-based; remark: listed apart in the source
[18] = molecular target: T8, Aminopeptidase N (Plasmodium falciparum FcB1/Columbia, UniProt O96935); test: malaria alanyl aminopeptidase activity blockers – biochemical, fluorogenic H-Leu-NHMec substrate, 1536-well (AID 1445); parameters: species or system Plasmodium falciparum 3D7, 3D7
T8 sequence (O96935 whole entry): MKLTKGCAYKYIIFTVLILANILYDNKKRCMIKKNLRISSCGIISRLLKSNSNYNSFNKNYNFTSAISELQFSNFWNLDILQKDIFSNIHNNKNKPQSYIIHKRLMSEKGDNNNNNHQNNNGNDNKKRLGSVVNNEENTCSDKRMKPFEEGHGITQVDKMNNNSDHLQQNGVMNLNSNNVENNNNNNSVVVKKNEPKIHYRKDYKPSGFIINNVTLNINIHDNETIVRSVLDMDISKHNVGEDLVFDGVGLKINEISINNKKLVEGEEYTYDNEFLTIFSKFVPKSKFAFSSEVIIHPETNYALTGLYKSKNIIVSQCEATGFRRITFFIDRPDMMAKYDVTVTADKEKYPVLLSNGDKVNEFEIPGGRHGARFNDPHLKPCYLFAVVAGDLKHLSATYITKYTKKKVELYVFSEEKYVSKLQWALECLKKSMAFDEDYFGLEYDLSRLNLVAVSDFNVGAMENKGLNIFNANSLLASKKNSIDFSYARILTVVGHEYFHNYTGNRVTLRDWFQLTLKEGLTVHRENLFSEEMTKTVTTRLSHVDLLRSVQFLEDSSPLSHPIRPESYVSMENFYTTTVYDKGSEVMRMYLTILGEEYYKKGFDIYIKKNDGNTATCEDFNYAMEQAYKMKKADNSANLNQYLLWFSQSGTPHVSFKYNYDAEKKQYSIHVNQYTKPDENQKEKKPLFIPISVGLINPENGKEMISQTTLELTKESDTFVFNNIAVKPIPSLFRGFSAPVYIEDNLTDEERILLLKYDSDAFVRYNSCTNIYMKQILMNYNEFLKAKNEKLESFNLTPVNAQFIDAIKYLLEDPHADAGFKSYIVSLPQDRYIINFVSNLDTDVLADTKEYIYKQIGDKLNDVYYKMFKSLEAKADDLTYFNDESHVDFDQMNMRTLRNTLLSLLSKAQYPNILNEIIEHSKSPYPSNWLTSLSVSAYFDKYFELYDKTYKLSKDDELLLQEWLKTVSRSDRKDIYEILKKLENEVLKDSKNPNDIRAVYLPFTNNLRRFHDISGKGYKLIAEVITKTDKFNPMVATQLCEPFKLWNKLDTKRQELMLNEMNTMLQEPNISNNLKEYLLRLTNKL

Structure (SMILES): CC(=O)c1ccc(N2CCN(C(=O)c3ccc(Br)cc3)CC2)c(F)c1
- AC50 [1]: 0.182 µM (active)

Structure (SMILES): O=C(CSc1ccc2nnc(-c3ccccn3)n2n1)Nc1ccc2c(c1)OCO2
- AC50 [2]: 107 µM (active)

Structure (SMILES): O=C(Nc1nnc(C2=COCCO2)o1)c1ccc([N+](=O)[O-])cc1
- AC50 [2]: 101 µM (active)

Structure (SMILES): Cc1ccc2nc(-c3ccc(NC(=S)NC(=O)C(C)C)cc3)sc2c1
- CC50 [3]: > 40 µM (active)
- IC50 [4]: > 64.6 µM (inactive)
- IC50 [5]: > 64.6 µM (inactive)

Structure (SMILES): C#CCNc1c(C)c(C)nc2ncnn12
- IC50 [6]: 4.47 µM (active)
- IC50 [7]: 9.35 µM (active)

Structure (SMILES): CCCn1c2ccccc2c2cnn(CC(=O)NCCN(CC)CC)c(=O)c21
- IC50 [6]: 3.36 µM (active)
- IC50 [7]: 5.7 µM (active)

Structure (SMILES): CC1(C)CC(=O)C=C(c2ccc3ncccc3c2)C1
- AC50 [1]: 4.74 µM (active)

Structure (SMILES): Cc1cc(C(=O)CCl)c(C)n1CCc1ccc(F)cc1
- IC50 [4]: > 64.5 µM (inactive)
- IC50 [5]: > 64.5 µM (inactive)
- AC50 [8]: 4.25 µM (active)

Structure (SMILES): Cc1c(C(=O)O)cccc1-n1c(C)cc(/C=C2\C(=O)NC(=O)N(c3ccc4c(c3)OCO4)C2=O)c1C
- EC50 [9]: > 300 µM (not active)
- IC50 [10]: 18 µM (active)
- EC50 [11]: > 300 µM (not active)

Structure (SMILES): CCc1occc(=O)c1Oc1cc(NN2CCCCC2)c([N+](=O)[O-])cc1[N+](=O)[O-]
- IC50 [12]: 119 µM (inactive)

Structure (SMILES): O=C(Nc1ccc2nccnc2c1)c1cnccn1
- AC50 [1]: 6.04 µM (active)

Structure (SMILES): N#C/C(=C\Nc1ccccc1O)c1nc2ccccc2o1
- IC50 [12]: 155 µM (inactive)

Structure (SMILES): O=[N+]([O-])c1cc(NS(=O)(=O)c2ccc(Cl)nc2)ccc1Cl
- IC50 [6]: 3.35 µM (active)
- IC50 [7]: 2.4 µM (active)

Structure (SMILES): COc1ccc(Oc2c(OC)cc(NCc3ccc(CN)cc3)c3ncccc23)cc1
- IC50 [13]: 41.3 µM (active)
- IC50 [14]: 7.55 µM (active)
- IC50 [10]: 10.3 µM (active)

Structure (SMILES): O=[N+]([O-])c1cc(Br)cc(/C=N/c2ccc3c(c2)OCO3)c1O
- IC50 [6]: 10 µM (active)
- IC50 [7]: 9.12 µM (active)

Structure (SMILES): O=C(N/N=C/c1cc(Br)ccc1O)C(c1ccncc1)N1CCOCC1 (stereo not drawn)
- IC50 [15]: 12.5 µM (active)
- EC50 [16]: > 350 µM (not active)
- EC50 [17]: 189 µM (active)
- AC50 [2]: 78.4 µM (active)
- IC50 [18]: 12 µM (active)

Structure (SMILES): C/C(CCC(=O)O)=N/Nc1ccc([N+](=O)[O-])cc1[N+](=O)[O-]
- IC50 [12]: 155 µM (inactive)

— ChEMBL document CHEMBL1201862, “PubChem BioAssay data set” (2004)
